Results as given in PMC5603587, “Pharmacological inhibition of CaMKK2 with the selective antagonist STO-609 regresses NAFLD” (Scientific Reports, 2017).
Read-outs that look alike come from different tables or passages of the source.

Columns and labels:
[1] = tissue distribution after a single i.p. dose; assay type: in vivo; conditions: ip, 30 μM/kg i.p., mouse; for Cmax: 30 μM/kg
Description: (§1) Plasma samples were prepared by mixing 5.0 μl of plasma with 45 μl of ice-cold MeOH followed by centrifugation at 15,000 × g for 15 min to remove protein. The resulting supernates were transferred into autosampler vials for analysis. Tissues (liver, intestine, kidney, pancreas, spleen, lung, heart, testis, white adipose tissue, gastrocnemius and brain) were weighed and homogenized in H2O/MeOH (1:1 v/v, 100 mg tissue in 600 μl). A volume of 200 μl of MeOH was added to 100 μl of tissue extracts. After vortexing and centrifugation (15 min at 15,000 × g), each supernate was transferred to an autosampler vial and 5.0 μl was injected to a system combining ultra-high performance liquid chromatography (UHPLC) and quadrupole time of flight mass spectrometry (QTOFMS) for analysis. The concentration of STO-609 was calculated based on standard curves in the corresponding matrices. The pharmacokinetic parameters were calculated using non-compartmental analysis with PKSolver[20]. The linear trapezoidal rule was used for area under the curve (AUC) calculation.
(§2) Separation of STO-609 and its metabolites was achieved using a LC-QTOFMS system (Agilent Technologies, Santa Clara, CA) equipped with a 100 mm × 2.1 mm (Agilent XDB C18) column as previously described. Briefly, the column temperature was maintained at 45 °C. The flow rate was maintained at 0.3 ml/min with a gradient ranging from 2% to 98% aqueous acetonitrile containing 0.1% formic acid over a 15 min run. QTOFMS was operated in positive mode with electrospray ionization. Ultra high pure nitrogen was applied as the drying (12 L/min) and collision gas. The drying gas temperature was set at 325°C and nebulizer pressure was maintained at 35 psi. Capillary voltages were set at 3.5 kV. During mass spectrometry, real time mass correction and accurate mass were achieved by continuously measuring standard reference ions at m/z 121.0508, 922.0098 in the positive mode. The MS/MS of STO-609 and its metabolites was performed in targeted mode with a default isolation width of 4 m/z and collision energy ramp ranging from 20 to 50 V. Mass chromatograms and mass spectra were acquired by MassHunter® Workstation data Acquisition software (Agilent, Santa Clara, CA) in centroid and profile formats from m/z 100 to 1000. The acquisition rate was set as 1.5 spectra per second. Statistical analysis was conducted using Student’s independent t-test. Data are presented as mean ± s.e.m.

[2] = plasma pharmacokinetics after a single i.p. dose; assay type: in vivo; conditions: male, C57BL/6 J, ip, mouse; for AUC(0-t): read-out: AUC 0-24, plasma
Description: as §1, §2

half-life ([1]; C57BL/6J, intestine, read-out: t½, intestine (converted)): 3.85 h
half-life ([1]; C57BL/6J, kidney, read-out: t½, kidney (converted)): 8.5 h
Cmax ([1]; C57BL/6J, intestine, read-out: Cmax, intestine): 517 nM
Cmax ([1]; C57BL/6J, intestine, read-out: Cmax, intestine (text)): ~500 nM
Cmax ([1]; C57BL/6J, pancreas, read-out: Cmax, pancreas): 329 nM
half-life ([1]; C57BL/6J, pancreas, read-out: t½, pancreas (converted)): 3.18 h
half-life ([1]; C57BL/6J, spleen, read-out: t½, spleen (converted)): 4 h
half-life ([1]; male, C57BL/6 J, brain, read-out: t½, brain (converted)): 5.21 h
half-life ([1]; male, C57BL/6 J, gastrocnemius, read-out: t½, gastrocnemius (converted)): 5.83 h
half-life ([1]; male, C57BL/6 J, heart, read-out: t½, heart (converted)): 3.01 h
half-life ([1]; male, C57BL/6 J, liver, read-out: t½, liver (converted)): 3.74 h
half-life ([1]; male, C57BL/6 J, lung, read-out: t½, lung (converted)): 3.24 h
Cmax ([1]; male, C57BL/6 J, gastrocnemius, read-out: Cmax, gastrocnemius): 84 nM
Cmax ([1]; male, C57BL/6 J, heart, read-out: Cmax, heart): 293 nM
Cmax ([1]; male, C57BL/6 J, spleen, read-out: Cmax, spleen): 341 nM
Cmax ([1]; male, C57BL/6 J, testis, read-out: Cmax, testis): 209 nM
Cmax ([1]; male, C57BL/6 J, white adipose tissue, read-out: Cmax, white adipose tissue): 137 nM
half-life ([1]; male, C57BL/6 J, testis, read-out: t½, testis (converted)): 3.95 h
half-life ([1]; male, C57BL/6 J, white adipose tissue, read-out: t½, white adipose tissue (converted)): 3.93 h
AUC(0-inf) ([2]; 30 μM/kg i.p.): 317 µM·h
CL/F ([2]; 30 μM/kg i.p.): 1.5 mL/min/kg
Cmax ([2]; 30 μM/kg i.p.): 32600 nM
AUC(0-t) ([2]; 30 μM/kg i.p.): 245 µM·h
half-life ([2]; 30 μM/kg i.p., read-out: t½, plasma (converted)): 12.2 h
AUC(0-inf) ([2]; 300 μM/kg i.p.): 3250 µM·h
CL/F ([2]; 300 μM/kg i.p.): 1.5 mL/min/kg
Cmax ([2]; 300 μM/kg i.p.): 473000 nM
AUC(0-t) ([2]; 300 μM/kg i.p.): 2930 µM·h
half-life ([2]; 300 μM/kg i.p., read-out: t½, plasma (converted)): 7.93 h
half-life ([2]; 30 and 300 μM/kg i.p., read-out: t½, plasma, over the doses): 8 to 12 h
SMILES: O=C(O)c1ccc2c3c1cccc3c(=O)n1c3ccccc3nc21 [STO-609^S]
